According to patent publication US20170037028A1 (BAYER PHARMA AKTIENGESELLSCHAFT, priority 2013, published 2017):

Target: T1, GLUT1 (Homo sapiens, UniProt P11166)
T1 sequence (P11166 1-492): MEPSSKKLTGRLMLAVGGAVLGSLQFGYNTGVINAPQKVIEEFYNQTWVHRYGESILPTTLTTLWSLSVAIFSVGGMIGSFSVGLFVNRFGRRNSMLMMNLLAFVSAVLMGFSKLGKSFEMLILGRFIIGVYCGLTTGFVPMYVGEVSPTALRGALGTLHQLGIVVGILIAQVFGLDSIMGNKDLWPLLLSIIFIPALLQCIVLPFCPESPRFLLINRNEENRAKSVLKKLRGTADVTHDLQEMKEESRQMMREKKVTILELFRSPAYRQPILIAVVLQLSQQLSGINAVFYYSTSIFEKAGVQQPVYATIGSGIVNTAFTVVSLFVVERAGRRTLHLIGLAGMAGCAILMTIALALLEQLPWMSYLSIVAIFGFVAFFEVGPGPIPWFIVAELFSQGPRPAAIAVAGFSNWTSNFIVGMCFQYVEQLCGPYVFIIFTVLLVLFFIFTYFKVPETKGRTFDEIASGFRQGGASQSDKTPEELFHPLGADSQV
Assay: Indirect measurement of GLUT1 activity by quantification of intracellular ATP levels (glucose induced ATP increase)
Format: cell-based
Design: endogenous in cells; host or cells: DLD1 or CHO-K1
Details: DLD1 cells; 0.1 mM glucose, 1 μM Rotenone, 15 min; CellTiter-Glo ATP readout; IC50 values standardized to cytochalasin B IC50 values; read-out: IC50 regarding glucose induced ATP increase (GLUT1 inhibition)
Description: Indirect Measurement of GLUT1 and GLUT2 Activity by Quantification of Intracellular ATP Levels
It is well known that a combination of small-molecule inhibitors of mitochondrial electron transport chain and glucose catabolism synergistically suppress ATP production and impair cellular viability (Ulanovskaya et al., 2008, 2011; Liu, et al. 2001). We therefore used DLD1 or CHO-K1 cells in combination with an oxidative phosphorylation inhibitor to identify GLUT1 and GLUT2 inhibitors. Cell lines were maintained in DMEM medium supplemented with 10% FCS and 1% Penicillin-Streptomycin solution and 2% Glutamax. The cells were treated with trypsin and seeded into 384 plates at a density of 4000 cells/well. The cells were then cultured overnight in glucose free media containing 1% FCS to reduce intracellular ATP levels. […] The CellTiter-Glo® Luminescent Cell Viability Assay from Promega was then used to measure ATP Levels.

Row | IC50 [nM] | Molecule
1 | 1.9 | 6-cyano N^4-[1-(4-cyanobenzyl)-5-methyl-3-(trifluoromethyl)-1H-pyrazol-4-yl]quinoline-2,4-dicarboxamide [Example 337]

Same assay, conditions: read-out: IC50 regarding glucose induced ATP increase (GLUT1 inhibition)

Row | Molecule | IC50 [nM]
2 | Cc1nn(C(C)c2ccc(C#N)cc2)c(C)c1NC(=O)c1cc(C(N)=O)nc2ccccc12 (racemic) [Example 329, (±)-N^4-{1-[1-(4-cyanophenyl)ethyl]-3,5-dimethyl-1H-pyrazol-4-yl}quinoline-2,4-dicarboxamide] | 1.1
3 | Cc1nn(C(C)c2ccc(C#N)cc2)c(C)c1NC(=O)c1cc(C(N)=O)nc2cc(F)c(Cl)cc12 (racemic) [Example 330, (±)-6-chloro-N^4-{1-[1-(4-cyanophenyl)ethyl]-3,5-dimethyl-1H-pyrazol-4-yl}-7-fluoroquinoline-2,4-dicarboxamide] | 1.3
4 | Cc1c(NC(=O)c2cc(C(N)=O)nc3ccccc23)c(C(F)(F)F)nn1C(C)c1ccc(C#N)cc1 (racemic) [Example 333, (±)-N^4-{1-[1-(4-cyanophenyl)ethyl]-5-methyl-3-(trifluoromethyl)-1H-pyrazol-4-yl}quinoline-2,4-dicarboxamide] | 0.6
5 | Cc1c(NC(=O)c2cc(C(N)=O)nc3cc(F)ccc23)c(C(F)(F)F)nn1C(C)c1ccccc1 (racemic) [Example 334, (±)-7-fluoro-N^4-[5-methyl-1-(1-phenylethyl)-3-(trifluoromethyl)-1H-pyrazol-4-yl]quinoline-2,4-dicarboxamide] | 7.5
6 | Cc1nn(Cc2ccc(S(C)(=N)=O)cc2)c(C)c1NC(=O)c1cc(C(N)=O)nc2ccccc12 (racemic) [Example 377] | 1100
7 | Cc1nn(Cc2ccc(C(=O)NCC3CCO3)cn2)c(C)c1NC(=O)c1cc(C(F)(F)F)nc2ccc(Br)cc12 (racemic) [Example 1124] | 72.6
8 | Cc1nn(C(C)c2ccccc2)c(C)c1NC(=O)c1cc(C(F)(F)F)nc2ccc(Br)cc12 (racemic) [Example 1360] | 21.6
9 | COc1cc(C(=O)Nc2c(C)nn(C(C)c3ccccc3)c2C)c2ccccc2n1 (racemic) [Example 1361] | 36.9
10 | Cc1nn(C(C)c2ccccc2)c(C)c1NC(=O)c1cc(C(N)=O)nc2cc(F)c(Cl)cc12 (racemic) [Example 1363] | 1.8
11 | Cc1nn(C(C)c2ccc(F)cc2)c(C)c1NC(=O)c1cc(C(F)(F)F)nc2ccc(Br)cc12 (racemic) [Example 1374] | 42.6
12 | Cc1nn(C(C)CCc2ccc(F)cc2)c(C)c1NC(=O)c1cc(C(F)(F)F)nc2ccc(Br)cc12 (racemic) [Example 1378] | 643
13 | Cc1nn(C(C)CCc2ccc(F)cc2)c(C)c1NC(=O)c1cc(C(N)=O)nc2cc(F)c(Cl)cc12 (racemic) [Example 1380] | 3.7
14 | Cc1c(NC(=O)c2cc(C(N)=O)nc3ccccc23)c(C(F)(F)F)nn1C(C)c1ccccc1 (racemic) [Example 1397] | 4.3
15 | Cc1nn(Cc2ccc(S(C)(=N)=O)cc2)c(C)c1NC(=O)c1cc(C(F)(F)F)nc2ccc(Br)cc12 (racemic) [Example 1427] | 26.9
16 | Cc1c(NC(=O)c2cc(C(N)=O)nc3ccccc23)c(C(F)(F)F)nn1Cc1ccc(C(C)O)cc1 (racemic) [Example 1615] | 59.4
17 | Cc1c(NC(=O)c2cc(C(N)=O)nc3ccccc23)c(C(F)(F)F)nn1Cc1cccc(C(C)O)c1 (racemic) [Example 1644] | 184
18 | Cc1c(NC(=O)c2cc(C(N)=O)nc3cc(F)ccc23)c(C(F)(F)F)nn1C(C)c1ccccc1 (single isomer, unassigned) [Example 336, (S or R)-7-fluoro-N^4-[5-methyl-1-(1-phenylethyl)-3-(trifluoromethyl)-1H-pyrazol-4-yl]quinoline-2,4-dicarboxamide] | 150
19 | Cc1c(NC(=O)c2cc(C(N)=O)nc3cc(F)ccc23)c(C(F)(F)F)nn1C(C)c1ccccc1 (single isomer, unassigned) [Example 379, (R or S)-7-fluoro-N^4-[5-methyl-1-(1-phenylethyl)-3-(trifluoromethyl)-1H-pyrazol-4-yl]quinoline-2,4-dicarboxamide] | 862
20 | COc1ccc(Cn2nc(C)c(NC(=O)c3cc(OC)nc4ccccc34)c2C)cc1 [Example 1, 2-methoxy-N-[1-(4-methoxybenzyl)-3,5-dimethyl-1H-pyrazol-4-yl]quinoline-4-carboxamide] | 1.6

The next lines start with the values.

Row | IC50 [nM] | Molecule
21 | 2.5 | Cc1nn(C(C)c2ccc(C#N)cc2)c(C)c1NC(=O)c1cc(C(N)=O)nc2c(F)cccc12 (racemic) [Example 331, (±)-N^4-{1-[1-(4-cyanophenyl)ethyl]-3,5-dimethyl-1H-pyrazol-4-yl}-8-fluoroquinoline-2,4-dicarboxamide]
22 | 642 | CCOC(=O)N=S(C)(=O)c1ccc(Cn2nc(C)c(NC(=O)c3cc(C(N)=O)nc4ccccc34)c2C)cc1 (racemic) [Example 376, (±)-ethyl [{4-[(4-{[(2-carbamoylquinolin-4-yl)carbonyl]amino}-3,5-dimethyl-1H-pyrazol-1-yl)methyl]phenyl}(methyl)oxido-λ^6-sulfanylidene]carbamate]
23 | 8.3 | Cc1c(NC(=O)c2cc([S+](C)[O-])nc3ccccc23)c(C(F)(F)F)nn1Cc1ccc(C#N)cc1 (racemic) [Example 383, (±)-N-[1-(4-cyanobenzyl)-5-methyl-3-(trifluoromethyl)-1H-pyrazol-4-yl]-2-(methylsulfinyl)quinoline-4-carboxamide]
24 | 81.7 | Cc1c(NC(=O)c2cc(S(C)=NC#N)nc3ccccc23)c(C(F)(F)F)nn1Cc1ccc(C#N)cc1 (racemic) [Example 385, (±)-N-[1-(4-cyanobenzyl)-5-methyl-3-(trifluoromethyl)-1H-pyrazol-4-yl]-2-(N-cyano-S-methylsulfinimidoyl)quinoline-4-carboxamide]
25 | 43.2 | Cc1c(NC(=O)c2cc(S(C)(=O)=NC#N)nc3ccccc23)c(C(F)(F)F)nn1Cc1ccc(C#N)cc1 (racemic) [Example 386, (±)-N-[1-(4-cyanobenzyl)-5-methyl-3-(trifluoromethyl)-1H-pyrazol-4-yl]-2-(N-cyano-S-methylsulfonimidoyl)quinoline-4-carboxamide]
26 | 146 | Cc1c(NC(=O)c2cc(S(C)(=N)=O)nc3ccccc23)c(C(F)(F)F)nn1Cc1ccc(C#N)cc1 (racemic) [Example 387, (±)-N-[1-(4-cyanobenzyl)-5-methyl-3-(trifluoromethyl)-1H-pyrazol-4-yl]-2-(S-methylsulfonimidoyl)quinoline-4-carboxamide]
27 | 162 | Cc1nn(Cc2ccc(C(=O)N3CCC(O)C3)cc2)c(C)c1NC(=O)c1cc(C(F)(F)F)nc2ccc(Br)cc12 (racemic) [Example 1161]
28 | 164 | Cc1nn(Cc2ccc(C(=O)N3CCCC(O)C3)cc2)c(C)c1NC(=O)c1cc(C(F)(F)F)nc2ccc(Br)cc12 (racemic) [Example 1162]
29 | 170 | Cc1nn(Cc2ccc(C(=O)NC3CCNC3=O)cc2)c(C)c1NC(=O)c1cc(C(F)(F)F)nc2ccc(Br)cc12 (racemic) [Example 1166]
30 | 5.8 | Cc1nn(C(C)c2ccccc2)c(C)c1NC(=O)c1cc(C(N)=O)nc2ccccc12 (racemic) [Example 1362]
31 | 125 | Cc1nn(C(C)c2ccc(F)cc2)c(C)c1NC(=O)c1cc(C(N)=O)nc2ccccc12 (racemic) [Example 1364]
32 | 39.4 | Cc1nn(C(C)CCc2ccc(F)cc2)c(C)c1NC(=O)c1cc(C(N)=O)nc2ccccc12 (racemic) [Example 1379]
33 | 38.9 | Cc1c(NC(=O)c2cc(C(F)(F)F)nc3ccc(Br)cc23)c(C(F)(F)F)nn1C(C)c1ccccc1 (racemic) [Example 1398]
34 | 717 | CCOC(=O)N=S(C)(=O)c1ccc(Cn2nc(C)c(NC(=O)c3cc(C(F)(F)F)nc4ccc(Br)cc34)c2C)cc1 (racemic) [Example 1433]
35 | 45.4 | Cc1nn(Cc2ccc(C(C)O)cc2)c(C)c1NC(=O)c1cc(C(N)=O)nc2ccccc12 (racemic) [Example 1635]
36 | 319 | Cc1nn(Cc2cccc(C(C)O)c2)c(C)c1NC(=O)c1cc(C(N)=O)nc2ccccc12 (racemic) [Example 1645]
37 | 15.1 | Cc1nn(Cc2ccc(C(=O)N[C@H](C)[C@@H](C)O)cc2)c(C)c1NC(=O)c1cc(C(F)(F)F)nc2ccc(Br)cc12 (relative stereo) [Example 1057]
38 | 1.6 | Cc1c(NC(=O)c2cc(C(N)=O)nc3cc(F)ccc23)c(C(F)(F)F)nn1C(C)c1ccccc1 (single isomer, unassigned) [Example 335, (R or S)-7-fluoro-N^4-[5-methyl-1-(1-phenylethyl)-3-(trifluoromethyl)-1H-pyrazol-4-yl]quinoline-2,4-dicarboxamide]
